Source: ChEMBL document CHEMBL3822455, “Aryl or heteroaryl substituted aminal derivatives of HCV NS5A inhibitor MK-8742” (Bioorg Med Chem Lett, 2016)

Key:
Format in all cases: functional, organism-based, Hepacivirus hominis
[1] = system: Hepatitis C virus; assay: Antiviral activity against HCV genotype 1a assessed as replicon RNA level measured after 3 days by real-time PCR method; settings: subtype 1a, 72 h
[2] = system: Hepatitis C virus; assay: Antiviral activity against HCV genotype 1b assessed as replicon RNA level measured after 3 days by real-time PCR method; settings: 72 h
[3] = system: Hepatitis C virus; assay: Antiviral activity against HCV genotype 2a assessed as replicon RNA level measured after 3 days by real-time PCR method; settings: 72 h
[4] = system: Hepatitis C virus; assay: Antiviral activity against HCV genotype 2b assessed as replicon RNA level measured after 3 days by real-time PCR method; settings: 72 h
[5] = system: Hepatitis C virus; assay: Antiviral activity against HCV genotype 3a assessed as replicon RNA level measured after 3 days by real-time PCR method; settings: 72 h
[6] = system: Hepatitis C virus; assay: Antiviral activity against HCV genotype 4a assessed as replicon RNA level measured after 3 days by real-time PCR method; settings: 72 h
[7] = system: Hepatitis C virus; assay: Antiviral activity against HCV genotype 1a harboring NS5A Y93H mutant assessed as replicon RNA level measured after 3 days by real-time PCR method; settings: subtype 1a, 72 h
[8] = system: Hepatitis C virus; assay: Antiviral activity against HCV genotype 1a harboring NS5A L31V mutant assessed as replicon RNA level measured after 3 days by real-time PCR method; settings: subtype 1a, 72 h

SMILES	EC50 [1] [nM]	EC50 [2] [nM]	EC50 [3] [nM]	EC50 [4] [nM]	EC50 [5] [nM]	EC50 [6] [nM]	EC50 [7] [nM]	EC50 [8] [nM]
COC(=O)N[C@H](C(=O)N1CCC[C@H]1c1ncc(-c2ccc3c(c2)OC(c2cccc(-c4ncon4)c2)n2c-3cc3cc(-c4cnc([C@@H]5CCCN5C(=O)[C@@H](NC(=O)OC)C(C)C)[nH]4)ccc32)[nH]1)C(C)C (mixture of isomers)	0.009	0.006	0.007	4	0.4	0.02	6	0.2
COC(=O)N[C@H](C(=O)N1CCC[C@H]1c1ncc(-c2ccc3c(c2)OC(c2ccc(OC)cc2)n2c-3cc3cc(-c4cnc([C@@H]5CCCN5C(=O)[C@@H](NC(=O)OC)C(C)C)[nH]4)ccc32)[nH]1)C(C)C (mixture of isomers)	0.01	0.007	0.004	0.8	0.07	0.008	15	0.3
COC(=O)N[C@H](C(=O)N1CCC[C@H]1c1ncc(-c2ccc3c(c2)OC(c2cccc(-c4noc(C)n4)c2)n2c-3cc3cc(-c4cnc([C@@H]5CCCN5C(=O)[C@@H](NC(=O)OC)C(C)C)[nH]4)ccc32)[nH]1)C(C)C (mixture of isomers)	0.003	0.004	0.002	2	0.07	0.01	0.9	0.2
COC(=O)N[C@H](C(=O)N1CCC[C@H]1c1ncc(-c2ccc3c(c2)OC(c2ccc(-c4c(C)nn(C)c4C)cc2)n2c-3cc3cc(-c4cnc([C@@H]5CCCN5C(=O)[C@@H](NC(=O)OC)C(C)C)[nH]4)ccc32)[nH]1)C(C)C (mixture of isomers)	0.04	0.02	0.02	5	0.2	0.03	15	< 2
CNC(=O)c1cccc(C2Oc3cc(-c4cnc([C@@H]5CCCN5C(=O)[C@@H](NC(=O)OC)C(C)C)[nH]4)ccc3-c3cc4cc(-c5cnc([C@@H]6CCCN6C(=O)[C@@H](NC(=O)OC)C(C)C)[nH]5)ccc4n32)c1 (mixture of isomers)	0.06	0.01	0.09	24	0.9	0.18	145	< 10
COC(=O)N[C@H](C(=O)N1CCC[C@H]1c1ncc(-c2ccc3c(c2)OC(c2ccccc2)n2c-3cc3cc(-c4cnc([C@@H]5CCCN5C(=O)[C@@H](NC(=O)OC)C(C)C)[nH]4)ccc32)[nH]1)C(C)C (stereo partly drawn)	0.004	0.003	0.003	3	0.02	0.003	2	0.5
COC(=O)N[C@H](C(=O)N1CCC[C@H]1c1ncc(-c2ccc3c(c2)OC(c2ccc(-c4ccc5cncn5c4)cc2)n2c-3cc3cc(-c4cnc([C@@H]5CCCN5C(=O)[C@@H](NC(=O)OC)C(C)C)[nH]4)ccc32)[nH]1)C(C)C (mixture of isomers)	0.03	0.01	0.04	4	1	0.03	20	2
CCc1cccc(C2Oc3cc(-c4cnc([C@@H]5CCCN5C(=O)[C@@H](NC(=O)OC)C(C)C)[nH]4)ccc3-c3cc4cc(-c5cnc([C@@H]6CCCN6C(=O)[C@@H](NC(=O)OC)C(C)C)[nH]5)ccc4n32)c1 (mixture of isomers)	0.002	0.002	0.02	3	0.2	0.001	10	0.51
COC(=O)N[C@H](C(=O)N1CCC[C@H]1c1ncc(-c2ccc3c(c2)OC(c2ccc(-c4cncnc4)cc2)n2c-3cc3cc(-c4cnc([C@@H]5CCCN5C(=O)[C@@H](NC(=O)OC)C(C)C)[nH]4)ccc32)[nH]1)C(C)C (mixture of isomers)	0.07	0.023	0.04	13	1	0.04	70	10
COC(=O)N[C@H](C(=O)N1CCC[C@H]1c1ncc(-c2ccc3c(c2)OC(c2cccc(C(=O)O)c2)n2c-3cc3cc(-c4cnc([C@@H]5CCCN5C(=O)[C@@H](NC(=O)OC)C(C)C)[nH]4)ccc32)[nH]1)C(C)C (mixture of isomers)	2.83	2.4	11.8	> 1000	290	5.15	> 1000	212
COC(=O)N[C@H](C(=O)N1CCC[C@H]1c1ncc(-c2ccc3c(c2)OC(c2ccc(C#N)cc2)n2c-3cc3cc(-c4cnc([C@@H]5CCCN5C(=O)[C@@H](NC(=O)OC)C(C)C)[nH]4)ccc32)[nH]1)C(C)C (mixture of isomers)	0.004	0.003	0.006	6.5	0.25	0.01	12	0.6
COC(=O)N[C@H](C(=O)N1CCC[C@H]1c1ncc(-c2ccc3c(c2)OC(c2ccc(C4CC4)cc2)n2c-3cc3cc(-c4cnc([C@@H]5CCCN5C(=O)[C@@H](NC(=O)OC)C(C)C)[nH]4)ccc32)[nH]1)C(C)C (mixture of isomers)	0.003	< 0.02	< 0.2	0.5	0.03	< 0.2	0.5	0.04
CCOc1cccc(C2Oc3cc(-c4cnc([C@@H]5CCCN5C(=O)[C@@H](NC(=O)OC)C(C)C)[nH]4)ccc3-c3cc4cc(-c5cnc([C@@H]6CCCN6C(=O)[C@@H](NC(=O)OC)C(C)C)[nH]5)ccc4n32)c1 (mixture of isomers)	0.02	0.001	0.01	0.4	0.05	0.0005	1.8	0.2
COC(=O)N[C@H](C(=O)N1CCC[C@H]1c1ncc(-c2ccc3c(c2)OC(c2ccc(-c4ccccc4)cc2)n2c-3cc3cc(-c4cnc([C@@H]5CCCN5C(=O)[C@@H](NC(=O)OC)C(C)C)[nH]4)ccc32)[nH]1)C(C)C (mixture of isomers)	< 0.02	< 0.02	< 0.2	< 2	< 0.2	< 0.02	< 2	< 2
COC(=O)N[C@H](C(=O)N1CCC[C@H]1c1ncc(-c2ccc3c(c2)OC(c2cccc(C(F)(F)F)c2)n2c-3cc3cc(-c4cnc([C@@H]5CCCN5C(=O)[C@@H](NC(=O)OC)C(C)C)[nH]4)ccc32)[nH]1)C(C)C (mixture of isomers)	0.003	0.003	0.003	2	0.04	0.01	2	0.62
COC(=O)N[C@H](C(=O)N1CCC[C@H]1c1ncc(-c2ccc3c(c2)OC(c2cccc(C(N)=O)c2)n2c-3cc3cc(-c4cnc([C@@H]5CCCN5C(=O)[C@@H](NC(=O)OC)C(C)C)[nH]4)ccc32)[nH]1)C(C)C (mixture of isomers)	0.09	0.01	0.51	> 100	> 1	> 1	19	7
COC(=O)N[C@H](C(=O)N1CCC[C@H]1c1ncc(-c2ccc3c(c2)OC(c2ccc(-c4ccc(-c5ccccc5)cc4)cc2)n2c-3cc3cc(-c4cnc([C@@H]5CCCN5C(=O)[C@@H](NC(=O)OC)C(C)C)[nH]4)ccc32)[nH]1)C(C)C (mixture of isomers)	0.001	0.002	0.003	0.06	0.1	0.001	< 2	0.06
COC(=O)N[C@H](C(=O)N1CCC[C@H]1c1ncc(-c2ccc3c(c2)OC(c2cccc(-c4ccc(-c5ccccc5)cc4)c2)n2c-3cc3cc(-c4cnc([C@@H]5CCCN5C(=O)[C@@H](NC(=O)OC)C(C)C)[nH]4)ccc32)[nH]1)C(C)C (mixture of isomers)	0.006	0.003	0.003	3	0.01	0.005	2	0.3
COC(=O)N[C@H](C(=O)N1CCC[C@H]1c1ncc(-c2ccc3c(c2)OC(c2cccc(-c4ccccc4)c2)n2c-3cc3cc(-c4cnc([C@@H]5CCCN5C(=O)[C@@H](NC(=O)OC)C(C)C)[nH]4)ccc32)[nH]1)C(C)C (stereo partly drawn)	0.003	0.004	0.003	1	0.07	0.005	8	0.3
COC(=O)N[C@H](C(=O)N1CCC[C@H]1c1ncc(-c2ccc3c(c2)OC(c2cccc(C4CC4)c2)n2c-3cc3cc(-c4cnc([C@@H]5CCCN5C(=O)[C@@H](NC(=O)OC)C(C)C)[nH]4)ccc32)[nH]1)C(C)C (mixture of isomers)	0.004	0.002	0.01	7	0.3	0.002	12	0.6
COC(=O)N[C@H](C(=O)N1CCC[C@H]1c1ncc(-c2ccc3c(c2)OC(c2cccc(-c4ccc(N)nc4)c2)n2c-3cc3cc(-c4cnc([C@@H]5CCCN5C(=O)[C@@H](NC(=O)OC)C(C)C)[nH]4)ccc32)[nH]1)C(C)C (mixture of isomers)	0.004	0.006	0.005	2	0.2	0.002	10	0.2
